Data as given in patent US6875761B2 (Eisai Co., Ltd., priority 1997, dated 2005).
Structures can show the parent of a compound that is named as a salt.

Key:
[1] = biological target: T1, serotonin 1A receptor (Rattus norvegicus, UniProt P19327); assay: Binding test on [3H] 8-hydroxy-dipropylaminotetralin, hippocampus receptor fraction; set-up: species or system SD rats; details: rat hippocampus receptor fraction, 0.5 nM [3H] 8-OH-DPAT, room temperature 30 min; read-out: 5HT1
T1 construct: To the receptor fraction of the hippocampus were added a test compound and 0.5 nM of [^3H]; 8-hydroxy-dipropylaminotetralin; from tissue; host or cells: rat hippocampus membrane fraction
T1 sequence (P19327 1-422): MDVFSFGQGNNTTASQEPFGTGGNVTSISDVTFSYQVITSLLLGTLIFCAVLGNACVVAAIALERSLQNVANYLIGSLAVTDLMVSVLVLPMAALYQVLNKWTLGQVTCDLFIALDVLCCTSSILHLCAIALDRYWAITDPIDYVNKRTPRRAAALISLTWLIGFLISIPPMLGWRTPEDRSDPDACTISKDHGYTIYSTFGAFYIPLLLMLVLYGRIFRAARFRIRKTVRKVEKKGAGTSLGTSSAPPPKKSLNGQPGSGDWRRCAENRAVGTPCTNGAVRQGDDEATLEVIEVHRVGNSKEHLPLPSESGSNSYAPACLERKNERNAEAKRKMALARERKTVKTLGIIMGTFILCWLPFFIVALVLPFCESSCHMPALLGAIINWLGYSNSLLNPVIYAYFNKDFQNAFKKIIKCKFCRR

[2] = biological target: T2, serotonin 2 receptor (Rattus norvegicus, UniProt P14842); assay: Binding test on [3H] ketanserin, cerebral cortex receptor fraction; set-up: species or system SD rats; details: 0.3 nM [3H] ketanserin, 37° C. 15 min, read-out: 5HT2
T2 construct: To the receptor fraction of the cerebral cortex were added a test compound and 0.3 nM of [^3H] ketanserin; from tissue; host or cells: rat cerebral cortex membrane fraction
T2 sequence (P14842 whole entry): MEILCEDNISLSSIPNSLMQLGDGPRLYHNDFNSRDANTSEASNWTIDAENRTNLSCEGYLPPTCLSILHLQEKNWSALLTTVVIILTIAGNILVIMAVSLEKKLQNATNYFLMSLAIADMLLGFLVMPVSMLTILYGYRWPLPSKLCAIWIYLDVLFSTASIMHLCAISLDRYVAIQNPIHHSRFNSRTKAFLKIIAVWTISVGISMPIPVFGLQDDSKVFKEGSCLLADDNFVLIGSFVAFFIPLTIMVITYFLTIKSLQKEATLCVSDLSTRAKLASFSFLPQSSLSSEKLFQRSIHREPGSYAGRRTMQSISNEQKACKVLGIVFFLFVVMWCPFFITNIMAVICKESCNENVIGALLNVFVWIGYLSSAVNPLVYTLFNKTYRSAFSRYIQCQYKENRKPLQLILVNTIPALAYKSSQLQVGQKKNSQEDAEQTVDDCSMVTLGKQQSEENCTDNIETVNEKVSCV

melting point [°C] | Ki [1] [nM] | Ki [2] [nM] | SMILES
135 to 137 | – | – | CC(C)(O)COc1ccc(-c2cc3sccc3c(N3CCN(CCF)CC3)n2)cc1 (as salt: hydrochloride) [Example 294, 6-[4-(2-methyl-2-hydroxypropoxy)phenyl]-4-[4-(2-fluoroethyl)piperazin-1-yl]thieno[3,2-c]pyridine]
– | 1.98 | 2.11 | CCN1CCN(c2nc(/C=C/c3ccc(OCCO)cc3)cc3ccsc23)CC1 [Example 431, 7-(4-ethylpiperazin-1-yl)-5-[4-(2-hydroxyethoxy)styryl]thieno[2,3-c]pyridine hydrochloride]
– | 11.2 | 33.7 | CCN1CCN(c2nc(/C=C/c3ccccc3OCCO)cc3ccccc23)CC1 [Example 194, 1-(1-Ethylpiperazin-4-Yl)-3-[trans-2-(2-Hydroxyethoxyphenyl)Ethenyl]Isoquinoline Oxalate]
– | 24 | 43.8 | CCCNC(=O)c1ccc(-c2cc3ccsc3c(N3CCN(CC)CC3)n2)cc1 [Example 449, 7-(4-ethylpiperazin-1-yl)-5-[4-(N-propylcarbamoyl)phenyl]thieno[2,3-c]pyridine dihydrochloride]
– | 12.2 | 105 | CCN1CCN(c2nc(-c3ccc(OCCCO)cc3)cc3ccoc23)CC1 [Example 317, 7-(1-ethylpiperazin-4-yl)-5-[4-(3-hydroxypropoxy)phenyl]furo[2,3-c]pyridine dihydrochloride]
– | 4 | 54.6 | CCN1CCN(c2nc(-c3ccc(S(=O)(=O)CCCO)cc3)cc3ccccc23)CC1 [Example 352, 1-(4-ethylpiperazin-1-yl)-3-[4-(3-hydroxypropyl)sulfonylphenyl]isoquinoline dihydrochloride]
– | 32 | 9.1 | CCN1CCN(c2nc(-c3cc(F)c(OCCOC)c(F)c3)cc3ccccc23)CC1 [Example 368, 1-(4-ethylpiperazin-1-yl)-3-(3,5-difluoro-4-methoxyethoxyphenyl)isoquinoline dihydrochloride]
– | 45 | 0.5 | CCN1CCN(c2nc(C#Cc3ccccc3)cc3ccccc23)CC1 [Example 177, 1-(1-Ethylpiperazin-4-Yl)-3-(Phenylethynyl)Isoquinoline Dihydrochloride]
– | 55.2 | 3.3 | CCN1CCN(c2nc(-c3ccc(OCCOC)c(F)c3)cc3ccccc23)CC1 [Example 367, 1-(4-ethylpiperazin-1-yl)-3-(3-fluoro-4-methoxyethoxyphenyl)isoquinoline dihydrochloride]
– | 27.3 | 0.1 | CCCNC(=O)c1ccc(-c2cc3ccccc3c(N3CCN(CC)CC3)n2)cc1F [Example 384, 1-(4-Ethylpiperazin-1-yl)-3-[4-(N-Propylcarbamoyl)-3-Fluorophenyl]Isoquinoline Dihydrochloride]
– | 6.4 | 41.2 | CCN1CCN(c2nc(-c3ccc(CN4CCSCC4)cc3)cc3ccccc23)CC1 [Example 94, 3-(4-Thiomorpholinylmethylphenyl)-1-(4-ethylpiperazin-1-yl)isoquinoline Hydrochloride]
– | 2.6 | 4.9 | CCN1CCN(c2nc(-c3ccc(S(=O)(=O)CCCF)cc3)cc3ccccc23)CC1 [Example 355, 1-(4-ethylpiperazin-1-yl)-3-[4-(3-fluoropropyl)sulfonylphenyl]isoquinoline dihydrochloride]
– | 87 | 13.9 | CCN1CCN(c2nc(-c3ccc(OCC(C)O)cc3)cc3cccnc23)CC1 (stereo in doubt) [Example 246, 8-(1-ethylpiperazin-4-yl)-6-{4-[(S)-2-hydroxypropoxy}phenyl]-1,7-naphthyridine Dihydrochloride]
– | 3.8 | 7.2 | CCN1CCN(c2nc(-c3ccc(S(=O)(=O)CC)cc3)cc3ccccc23)CC1 [Example 366, 1-(4-ethylpiperazin-1-yl)-3-[4-(ethylsulfonyl)phenyl]isoquinoline dihydrochloride]
– | 10.7 | 6.3 | CCN1CCN(c2nc(-c3ccc(CCCO)c(Cl)c3)cc3ccccc23)CC1 [Example 30, 3-[3-chloro-4-(3-hydroxypropyl)phenyl]-1-(4-ethylpiperazin-1-yl)isoquinoline hydrochloride]
– | 22.2 | 17.9 | CCN1CCN(c2nc(/C=C(\C)c3cccc(N4CCOCC4)c3)cc3ccccc23)CC1 [Example 207, 3-{(E)-2-Methyl-2-[3-(4-Morpholinyl)Phenyl]Ethenyl}-1-(4-Ethylpiperazin-1-Yl)Isoquinoline Oxalate]
– | 43 | 31.6 | CCN1CCN(c2nc(-c3ccc(CCC(C)O)cc3)cc3cccnc23)CC1 (centres unmarked) [Example 248, 8-(1-ethylpiperazin-4-yl)-6-[4-(3-hydroxybutyl)phenyl]-1,7-naphthyridine Dihydrochloride]
– | 9.38 | 11.9 | CCC(O)c1cc(-c2cc3ccccc3c(N3CCN(CC)CC3)n2)cs1 (centres unmarked) [Example 164, 1-(1-ethylpiperazin-4-yl)-3-[2-(1-hydroxypropyl)thiophen-4-yl]isoquinoline hydrochloride]
– | 63.3 | 16.2 | CCN1CCN(c2nc(-c3ccc4c(c3)CC(C)(CO)O4)cc3ccsc23)CC1 (centres unmarked) [Example 456, dihydrochloride]
– | 16.9 | 17 | CCNC(=O)Cc1ccc(-c2cc3ccccc3c(N3CCN(CC)CC3)n2)cc1 [Example 87, 3-(4-Ethylaminocarbonylmethylphenyl)-1-(4-ethylpiperazin-1-yl)isoquinoline Hydrochloride]
– | 50.4 | 2.6 | CCN1CCN(c2nc(-c3ccc(C4CCCO4)cc3)cc3ccccc23)CC1 (centres unmarked) [Example 396, 1-(4-Ethylpiperazin-1-yl)-3-[4-(Tetrahydrofuran-2-yl)Phenyl]Isoquinoline Dihydrochloride]
– | 2.9 | 20.4 | CCN1CCN(c2nc(-c3ccc(CCCOC)cn3)cc3ccccc23)CC1 [Example 141, 1-(1-Ethylpiperazin-4-yl)-3-[5-(3-Methoxypropyl)Pyridin-2-yl]Isoquinoline Oxalate]
– | 10.7 | 84.7 | CCN1CCN(c2nc(-c3ccc(CO)s3)cc3ccccc23)CC1 [Example 162, 1-(1-ethylpiperazin-4-yl)-3-(2-hydroxymethylthiophen-5-yl)isoquinoline dihydrochloride]
– | 4.5 | 12.9 | CCN1CCN(c2nc(-c3ccc(CS(C)(=O)=O)cc3)cc3ccccc23)CC1 [Example 90, 3-(4-Methylsulfonylmethylphenyl)-1-(4-ethylpiperazin-1-yl)isoquinoline Hydrochloride]
– | 20.6 | 3.53 | CCN1CCN(c2nc(-c3ccc(CCCO)c(OC)c3)cc3ccsc23)CC1 [Example 433, 7-(4-ethylpiperazin-1-yl)-5-[4-(3-hydroxypropyl)-3-methoxyphenyl]thieno[2,3-c]-pyridine hydrochloride]
– | 21.7 | 3.9 | CCNC(=O)c1ccc(-c2cc3ccccc3c(N3CCN(CC)CC3)n2)cc1 [Example 364, 1-(4-ethylpiperazin-1-yl)-3-[4-(N-ethylcarbamoyl)phenyl]isoquinoline dihydrochloride]

SMILES | melting point [°C] | Ki [1] [nM] | Ki [2] [nM]
CCN1CCN(c2nc(-c3ccnc(OCCOC)c3)cc3ccccc23)CC1 [Example 407, 1-(4-ethylpiperazin-1-yl)-3-[2-(2-methoxyethoxy)pyridin-4-yl]isoquinoline] | – | 17.8 | 26.1
CCN1CCN(c2nc(C#Cc3ncccc3OCCO)cc3ccccc23)CC1 [Example 188, 1-(1-Ethylpiperazin-4-Yl)-3-[3-(2-Hydroxyethoxy)-2-Pyridyl]Ethynylisoquinoline] | – | 4.47 | 107
CCN1CCN(c2nc(-c3ccc(OCC4OCCO4)cc3)cc3ccccc23)CC1 [Example 336, 1-(4-ethylpiperazin-1-yl)-3-[4-(1,3-dioxolan-2-ylmethyloxy)phenyl]isoquinoline] | – | 45.7 | 2.6
CCCS(=O)(=O)c1ccc(-c2cc3ccccc3c(N3CCN(CC)CC3)n2)cc1 [Example 349, 1-(4-ethylpiperazin-1-yl)-3-[4-propylsulfonyl)phenyl]isoquinoline dihydrochloride] | – | 3.2 | 5
CCN1CCN(c2nc(-c3ccc(C(O)CC(C)(C)O)cc3)cc3ccccc23)CC1 (centres unmarked) [Example 25, 3-[4-(1,3-dihydroxy-3-methylbutyl)phenyl]-1-(4-ethylpiperazin-1-yl)isoquinoline] | – | 21.5 | 3.4
CCN1CCN(c2nc(/C=C/c3ccncc3)cc3ccccc23)CC1 [Example 210, 1-(1-Ethylpiperazin-4-Yl)-3-[Trans-2-(4-Pyridyl)Ethenyl]Isoquinoline] | – | 6.56 | 3.95
CCC/C(=N\O)c1ccc(-c2cc3ccccc3c(N3CCN(CC)CC3)n2)cc1 [Example 380, 1-(4-Ethylpiperazin-1-yl)-3-[4-(1-Hydroxyiminobutyl)Phenyl]Isoquinoline] | – | 31.2 | 23
